Measured values published in US12115213B2, “Methods of treating fungal infections” (priority 2016, dated 2024).
Peptide text beside a SMILES is read from it. * marks the point of attachment. Cbz = O=C(OCc1ccccc1)*

Tested on: wild-type H99 strain
Assay: Proteasome inhibitor / SDS sensitivity growth assay
Type: cell-based, Cryptococcus neoformans
Conditions: for growth of wild type and complemented strain with SDS and proteasome inhibitor: YPD with 0.025% SDS plus inhibitor
Experimental: For SDS sensitivity testing, SDS was added to YPD to a final concentration of 0.2% (wt/vol), and 2× serial dilutions were prepared in 96-well plates. Cells of H99, the fbp1Δ mutant, and its complemented strain were added to the wells to a final optical density at 600 nm (OD600) of 0.01. The plates were kept at 30° C., and the OD600 was measured every 24 h. […] Twofold serial dilutions were prepared in 96-well plates. The wild-type H99 strain was added to the well containing proteasome inhibitors (MG132 or […]) and SDS to a final OD600 of 0.01. The fbp1Δ mutant was added to YPD with 0.025% SDS only to a final OD600 of 0.01. The growth of cultures was determined by measuring the OD600 every 24 h.
To test whether SDS sensitivity is regulated by the SCF(Fbp1) E3 ligase function, the effects of proteasome inhibitors on Cryptococcus SDS sensitivity was investigated. Fungal growth rates of the wild-type H99 strain, the fp1Δ mutant, and its complemented strain on YPD medium containing 0.025% SDS were determined in the absence or presence of the proteasome inhibitor MG132 or PS-341. MG132 is a cell-permeative proteasome inhibitor which can reduce the degradation of ubiquitin-conjugated proteins by the 26S complex without affecting its ATPase or isopeptidase activity. PS-341 is a potent and reversible proteasome inhibitor that functions to […]. […] Therefore, without wishing to be bound by theory, certain substrates of Fbp1 may also participate in regulation of cell membrane integrity.

CC(C)C[C@@H](C=O)NC(=O)[C@H](CC(C)C)NC(=O)[C@H](CC(C)C)NC(=O)OCc1ccccc1 [MG132] (Cbz-Leu-Leu-Leu-aldehyde)
effect on growth of the wild-type strain or the mutant, inhibitor alone (25 μM MG132, YPD without SDS): Neither 25 μM MG132 nor 100 μM PS-341 alone affected the growth | growth of wild type and complemented strain with SDS and proteasome inhibitor: significant growth defect

CC(C)C[C@H](NC(=O)[C@H](Cc1ccccc1)NC(=O)c1cnccn1)B(O)O [PS-341]
effect on growth of the wild-type strain or the mutant, inhibitor alone (100 μM PS-341, YPD without SDS): Neither 25 μM MG132 nor 100 μM PS-341 alone affected the growth | growth of wild type and complemented strain with SDS and proteasome inhibitor: significant growth defect
